Tests used:
[1] = system: Leishmania donovani; assay: Antileishmanial activity against Leishmania donovani BPK043 amastigotes infected in Swiss mouse primary peritoneal mouse macrophages assessed as reduction of total parasite burden after 5 days; type: functional, organism-based
[2] = system: Leishmania donovani; assay: Antileishmanial activity against Leishmania donovani BPK091 amastigotes infected in Swiss mouse primary peritoneal mouse macrophages assessed as reduction of total parasite burden after 5 days; type: functional, organism-based
[3] = system: Leishmania donovani; assay: Antileishmanial activity against Leishmania donovani BPK178 amastigotes infected in Swiss mouse primary peritoneal mouse macrophages assessed as reduction of total parasite burden after 5 days; type: functional, organism-based
[4] = system: Leishmania donovani; assay: Antileishmanial activity against Leishmania donovani BPK206 amastigotes infected in Swiss mouse primary peritoneal mouse macrophages assessed as reduction of total parasite burden after 5 days; type: functional, organism-based
[5] = system: Leishmania donovani; assay: Antileishmanial activity against Leishmania donovani BPK206cl amastigotes infected in Swiss mouse primary peritoneal mouse macrophages assessed as reduction of total parasite burden after 5 days; type: functional, organism-based
[6] = system: Leishmania donovani; assay: Antileishmanial activity against Leishmania donovani BPK274 amastigotes infected in Swiss mouse primary peritoneal mouse macrophages assessed as reduction of total parasite burden after 5 days; type: functional, organism-based
[7] = system: Leishmania donovani; assay: Antileishmanial activity against Leishmania donovani BPK294 amastigotes infected in Swiss mouse primary peritoneal mouse macrophages assessed as reduction of total parasite burden after 5 days; type: functional, organism-based
[8] = system: Leishmania donovani; assay: Antileishmanial activity against Leishmania donovani BPK298 amastigotes infected in Swiss mouse primary peritoneal mouse macrophages assessed as reduction of total parasite burden after 5 days; type: functional, organism-based
[9] = system: Leishmania donovani; assay: Antileishmanial activity against Leishmania donovani BPK177 amastigotes infected in Swiss mouse primary peritoneal mouse macrophages assessed as reduction of total parasite burden after 5 days; type: functional, organism-based
[10] = system: Leishmania donovani; assay: Antileishmanial activity against Leishmania donovani BPK190 amastigotes infected in Swiss mouse primary peritoneal mouse macrophages assessed as reduction of total parasite burden after 5 days; type: functional, organism-based
[11] = system: Leishmania donovani; assay: Antileishmanial activity against Leishmania donovani BPK190cl amastigotes infected in Swiss mouse primary peritoneal mouse macrophages assessed as reduction of total parasite burden after 5 days; type: functional, organism-based
[12] = system: Leishmania guyanensis; assay: Antileishmanial activity against Leishmania guyanensis PER106 amastigotes infected in Swiss mouse primary peritoneal mouse macrophages assessed as reduction of total parasite burden after 5 days; type: functional, organism-based
[13] = system: Leishmania guyanensis; assay: Antileishmanial activity against Leishmania guyanensis PER008 amastigotes infected in Swiss mouse primary peritoneal mouse macrophages assessed as reduction of total parasite burden after 5 days; type: functional, organism-based
[14] = system: Leishmania guyanensis; assay: Antileishmanial activity against Leishmania guyanensis PER054 amastigotes infected in Swiss mouse primary peritoneal mouse macrophages assessed as reduction of total parasite burden after 5 days; type: functional, organism-based
[15] = system: Leishmania guyanensis; assay: Antileishmanial activity against Leishmania guyanensis PER072 amastigotes infected in Swiss mouse primary peritoneal mouse macrophages assessed as reduction of total parasite burden after 5 days; type: functional, organism-based
[16] = system: Leishmania guyanensis; assay: Antileishmanial activity against Leishmania guyanensis PER080 amastigotes infected in Swiss mouse primary peritoneal mouse macrophages assessed as reduction of total parasite burden after 5 days; type: functional, organism-based
[17] = system: Leishmania braziliensis; assay: Antileishmanial activity against Leishmania braziliensis PER002cl amastigotes infected in Swiss mouse primary peritoneal mouse macrophages assessed as reduction of total parasite burden after 5 days; type: functional, organism-based
[18] = system: Leishmania braziliensis; assay: Antileishmanial activity against Leishmania braziliensis PER005cl amastigotes infected in Swiss mouse primary peritoneal mouse macrophages assessed as reduction of total parasite burden after 5 days; type: functional, organism-based
[19] = system: Leishmania donovani; assay: Activity index, ratio of IC50 for Leishmania donovani BPK091 to IC50 for Leishmania donovani BPK043; type: functional, organism-based
[20] = system: Leishmania donovani; assay: Activity index, ratio of IC50 for Leishmania donovani BPK178 to IC50 for Leishmania donovani BPK043; type: functional, organism-based
[21] = system: Leishmania donovani; assay: Activity index, ratio of IC50 for Leishmania donovani BPK206 to IC50 for Leishmania donovani BPK043; type: functional, organism-based
[22] = system: Leishmania donovani; assay: Activity index, ratio of IC50 for Leishmania donovani BPK206cl to IC50 for Leishmania donovani BPK043; type: functional, organism-based
[23] = system: Leishmania donovani; assay: Activity index, ratio of IC50 for Leishmania donovani BPK274 to IC50 for Leishmania donovani BPK043; type: functional, organism-based
[24] = system: Leishmania donovani; assay: Activity index, ratio of IC50 for Leishmania donovani BPK294 to IC50 for Leishmania donovani BPK043; type: functional, organism-based
[25] = system: Leishmania donovani; assay: Activity index, ratio of IC50 for Leishmania donovani BPK298 to IC50 for Leishmania donovani BPK043; type: functional, organism-based
[26] = system: Leishmania donovani; assay: Activity index, ratio of IC50 for Leishmania donovani BPK177 to IC50 for Leishmania donovani BPK043; type: functional, organism-based
[27] = system: Leishmania donovani; assay: Activity index, ratio of IC50 for Leishmania donovani BPK190 to IC50 for Leishmania donovani BPK043; type: functional, organism-based
[28] = system: Leishmania donovani; assay: Activity index, ratio of IC50 for Leishmania donovani BPK190cl to IC50 for Leishmania donovani BPK043; type: functional, organism-based
[29] = system: Leishmania guyanensis; assay: Activity index, ratio of IC50 for Leishmania guyanensis PER008 to IC50 for Leishmania guyanensis PER106; type: functional, organism-based
[30] = system: Leishmania guyanensis; assay: Activity index, ratio of IC50 for Leishmania guyanensis PER054 to IC50 for Leishmania guyanensis PER106; type: functional, organism-based
[31] = system: Leishmania guyanensis; assay: Activity index, ratio of IC50 for Leishmania guyanensis PER072 to IC50 for Leishmania guyanensis PER106; type: functional, organism-based
[32] = system: Leishmania guyanensis; assay: Activity index, ratio of IC50 for Leishmania guyanensis PER080 to IC50 for Leishmania guyanensis PER106; type: functional, organism-based
[33] = Activity index, ratio of IC50 for Leishmania braziliensis PER002cl to IC50 for Leishmania guyanensis PER106; type: functional
[34] = Activity index, ratio of IC50 for Leishmania braziliensis PER005cl to IC50 for Leishmania guyanensis PER106; type: functional

CCCCCCCCCCCCCCCCOP(=O)([O-])OCC[N+](C)(C)C [MILTEFOSINE]
IC50 ([1]; Leishmania donovani, BPK043, 120 h, read-out: IC50): 1.5 µM | IC50 ([2]; Leishmania donovani, BPK091, 120 h, read-out: IC50): 3.2 µM | IC50 ([3]; Leishmania donovani, BPK178, 120 h, read-out: IC50): 5.5 µM | IC50 ([4]; Leishmania donovani, BPK206, 120 h, read-out: IC50): 4 µM | IC50 ([5]; Leishmania donovani, BPK206cl, 120 h, read-out: IC50): 2 µM | IC50 ([6]; Leishmania donovani, BPK274, 120 h, read-out: IC50): 7.1 µM | IC50 ([7]; Leishmania donovani, BPK294, 120 h, read-out: IC50): 3 µM | IC50 ([8]; Leishmania donovani, BPK298, 120 h, read-out: IC50): 3.4 µM | IC50 ([9]; Leishmania donovani, BPK177, 120 h, read-out: IC50): 2 µM | IC50 ([10]; Leishmania donovani, BPK190, 120 h, read-out: IC50): 4.5 µM | IC50 ([11]; Leishmania donovani, BPK190cl, 120 h, read-out: IC50): 3 µM | IC50 ([12]; Leishmania guyanensis, PER106, 120 h, read-out: IC50): 10 µM | IC50 ([13]; Leishmania guyanensis, PER008, 120 h, read-out: IC50): 5 µM | IC50 ([14]; Leishmania guyanensis, PER054, 120 h, read-out: IC50): 9.5 µM | IC50 ([15]; Leishmania guyanensis, PER072, 120 h, read-out: IC50): 10 µM | IC50 ([16]; Leishmania guyanensis, PER080, 120 h, read-out: IC50): 7.5 µM | IC50 ([17]; Leishmania braziliensis, PER002cl, 120 h, read-out: IC50): 10.3 µM | IC50 ([18]; Leishmania braziliensis, PER005cl, 120 h, read-out: IC50): 10 µM

POTASSIUM ANTIMONYL TARTRATE TRIHYDRATE [listing 1 of 2 here]
IC50 [1]: 6 µg/mL | IC50 [2]: 24.2 µg/mL | IC50 [3]: 21.8 µg/mL | IC50 [4]: 11 µg/mL | IC50 [5]: 5 µg/mL | IC50 [6]: 16.2 µg/mL | IC50 [7]: 6 µg/mL | IC50 [8]: 12 µg/mL | IC50 [9]: 32 µg/mL | IC50 [10]: 27.3 µg/mL | IC50 [11]: 24 µg/mL | IC50 [12]: 12 µg/mL | IC50 [13]: 18 µg/mL | IC50 [14]: 18 µg/mL | IC50 [15]: 19 µg/mL | IC50 [16]: 14.5 µg/mL | IC50 [17]: 13.5 µg/mL | IC50 [18]: 25 µg/mL

POTASSIUM ANTIMONYL TARTRATE TRIHYDRATE [listing 2 of 2 here]
Ratio IC50 [19]: 3.9 | Ratio IC50 [20]: 3.6 | Ratio IC50 [21]: 1.8 | Ratio IC50 [22]: 0.8 | Ratio IC50 [23]: 2.7 | Ratio IC50 [24]: 1 | Ratio IC50 [25]: 2 | Ratio IC50 [26]: 5.3 | Ratio IC50 [27]: 4.5 | Ratio IC50 [28]: 4 | Ratio IC50 [29]: 1.6 | Ratio IC50 [30]: 1.6 | Ratio IC50 [31]: 1.6 | Ratio IC50 [32]: 1.4 | Ratio IC50 [33]: 1.3 | Ratio IC50 [34]: 2.4

sodium stibogluconate
Ratio IC50 [19]: 3.2 | Ratio IC50 [20]: 3.1 | Ratio IC50 [21]: 3.6 | Ratio IC50 [22]: 5.5 | Ratio IC50 [23]: 3.2 | Ratio IC50 [24]: 1.5 | Ratio IC50 [25]: 1.9 | Ratio IC50 [26]: 6.6 | Ratio IC50 [27]: 6.6 | Ratio IC50 [28]: 4.2 | Ratio IC50 [29]: 3.2 | Ratio IC50 [30]: 4 | Ratio IC50 [31]: 6 | Ratio IC50 [32]: 2.5 | Ratio IC50 [33]: 4.5 | Ratio IC50 [34]: 5.8
